Measured values taken from patent US20200131196A1 (Mount Tam Therapeutics, Inc., priority 2017, published 2020).
Like-named read-outs stand apart in the source and are kept apart here.

Columns and labels:
[1] = system: CHP-212; assay: OncoPanel cell proliferation assay, CHP-212
Description: (§5) Cells were seeded into 384-well plates and incubated in a humidified atmosphere of 5% CO2 at 37° C. Compounds were added the day following cell seeding. At the same time, a time zero untreated cell plate was generated. After a 3-day incubation period, cells were fixed and stained to allow fluorescence imaging of nuclei. Compounds (1 mM stock solutions) were serially diluted in half-log steps from the highest test concentration (1 micromol), and assayed over 10 concentrations with a maximum assay concentration of 0.1% DMSO. Automated fluorescence microscopy was carried out using a Molecular Devices ImageXpress Micro XL high-content imager, and images were collected with a 4× objective. 16-bit TIFF images were acquired and analyzed with MetaXpress 5.1.0.41 software.

[2] = system: AsPC-1; assay: OncoPanel cell proliferation assay, AsPC-1
Description: as §5

[3] = system: DMS114; assay: OncoPanel cell proliferation assay, DMS114; type: cell-based, human
Description: (§1) Cells were seeded into 384-well plates and incubated in a humidified atmosphere of 5% CO2 at 37° C. Compounds were added the day following cell seeding. At the same time, a time zero untreated cell plate was generated. After a 3-day incubation period, cells were fixed and stained to allow fluorescence imaging of nuclei. Compounds (1 mM stock solutions) were serially diluted in half-log steps from the highest test concentration ([…]), and assayed over 10 concentrations with a maximum assay concentration of 0.1% DMSO. Automated fluorescence microscopy was carried out using a Molecular Devices ImageXpress Micro XL high-content imager, and images were collected with a 4× objective. 16-bit TIFF images were acquired and analyzed with MetaXpress 5.1.0.41 software.
(§2) Cell proliferation was measured by the fluorescence intensity of an incorporated nuclear dye. The output is referred to as the relative cell count, where the measured nuclear intensity is transformed to percent of control (POC) using the following formula: […]
(§3) Cellular response parameters were calculated using nonlinear regression to a sigmoidal single-site dose response model:
GI50 is the concentration needed to reduce the observed growth by half (midway between the curve maximum and the time zero value). […] In rare instances, values <0 or >10 may be observed. […] Curve-fitting, calculations, and report generation was performed using a custom data reduction engine and MathIQ based software (AIM).

[4] = system: A431; assay: OncoPanel cell proliferation assay, A431; type: cell-based, human
Description: as §1, with “Cells were grown in RPMI 1640, 10% FBS, 2 mM L-alanyl-L-glutamine, 1 mM Na pyruvate, or a special medium. Cells” for “Cells”
as §2, §3
(§4) EC50 is the test compound concentration at the curve inflection point or half the effective response (parameter C of the fitted curve solution). GI50 is the concentration needed to reduce the observed growth by half (midway between the curve maximum and the time zero value). “Cell Count Activity Area” is an estimate of the integrated area above the curve (Barretina, et al. The Cancer Cell Line Encyclopedia enables predictive modelling of anticancer drug sensitivity. Nature 483: 603-607). […] In rare instances, values <0 or >10 may be observed. […] Curve-fitting, calculations, and report generation was performed using a custom data reduction engine and MathIQ based software (AIM).

[5] = system: RKOE6; assay: OncoPanel cell proliferation assay, RKOE6
Description: as §5

[6] = system: A101D; assay: OncoPanel cell proliferation assay, A101D; type: cell-based, human
Description: as §1, with “Cells were grown in RPMI 1640, 10% FBS, 2 mM L-alanyl-L-glutamine, 1 mM Na pyruvate, or a special medium. Cells” for “Cells”
as §2, §3, §4

With `CO[C@H]1C[C@@H]2CC[C@@H](C)[C@@](O)(O2)C(=O)C(=O)N2CCCC[C@H]2C(=O)O[C@H]([C@H](C)C[C@H]2C[C@H]3C[C@@H]2C[C@@H]3O)CC(=O)[C@H](C)/C=C(\C)[C@@H](O)[C@@H](OC)C(=O)[C@H](C)C[C@H](C)/C=C/C=C/C=C/1C` [Formula II, C37-[(1R,2S,4R,5S)-5-hyhroxybicyclo[2.2.1]heptane] rapamycin] the “Cell Count Activity Area” value ([1]; CHP-212) was 3.87, the “Relative cell count (%) Mean” value ([1]; CHP-212, 1.00E+00 microM) was 43.7% and the “Relative cell count (%) Mean” value ([1]; CHP-212, 1.00E-01 microM) was 47.0%. For the same compound, the “Relative cell count (%) Mean” value ([1]; CHP-212, 1.00E-02 microM) was 57.6%, the “Relative cell count (%) Mean” value ([1]; CHP-212, 1.00E-03 microM) was 59.5% and the “Relative cell count (%) Mean” value ([1]; CHP-212, 1.01E-04 microM) was 82.6%. The “Relative cell count (%) Mean” value ([1]; CHP-212, 3.16E-01 microM) was 46.9%, the “Relative cell count (%) Mean” value ([1]; CHP-212, 3.17E-02 microM) was 54.5% and the “Relative cell count (%) Mean” value ([1]; CHP-212, 3.17E-03 microM) was 59.2%. The “Relative cell count (%) Mean” value ([1]; CHP-212, 3.18E-04 microM) was 68.8%, the “Relative cell count (%) Mean” value ([1]; CHP-212, 3.18E-05 microM) was 93.4% and the EC50 ([1]; Homo sapiens, CHP-212, read-out: Cell Count EC50) was 0.267 nM. The GI50 ([1]; Homo sapiens, CHP-212, read-out: Cell Count GI50) was 0.349 nM, the IC50 ([1]; Homo sapiens, CHP-212, read-out: Cell Count IC50) was 34 nM and the “Cell Count Activity Area” value ([2]; AsPC-1) was 1.68. The “Relative cell count (%) Mean” value ([2]; AsPC-1, 1.00E+00 microM) was 70.3%, the “Relative cell count (%) Mean” value ([2]; AsPC-1, 1.00E-01 microM) was 74.4% and the “Relative cell count (%) Mean” value ([2]; AsPC-1, 1.00E-02 microM) was 89.3%. The “Relative cell count (%) Mean” value ([2]; AsPC-1, 1.00E-03 microM) was 90.9%, the “Relative cell count (%) Mean” value ([2]; AsPC-1, 1.01E-04 microM) was 105.4% and the “Relative cell count (%) Mean” value ([2]; AsPC-1, 3.16E-01 microM) was 77.3%. For the same compound, the “Relative cell count (%) Mean” value ([2]; AsPC-1, 3.17E-02 microM) was 81.7%, the “Relative cell count (%) Mean” value ([2]; AsPC-1, 3.17E-03 microM) was 90.9% and the “Relative cell count (%) Mean” value ([2]; AsPC-1, 3.18E-04 microM) was 97.5%. For the same compound, the “Relative cell count (%) Mean” value ([2]; AsPC-1, 3.18E-05 microM) was 104.0%, the EC50 ([2]; Homo sapiens, ASPC1) was 8.6 nM and the EC50 ([2]; Homo sapiens, ASPC1, read-out: Cell Count EC50) was 8.56 nM. For the same compound, the GI50 ([2]; Homo sapiens, ASPC1, read-out: Cell Count GI50) was 246 nM, the IC50 ([2]; Homo sapiens, ASPC1, read-out: Cell Count IC50) was greater than 1000 nM and the “Cell Count Activity Area” value [3] was 3.40. The “Relative cell count (%) Mean” value ([3]; 1.00E+00 microM) was 43.1%, the “Relative cell count (%) Mean” value ([3]; 1.00E-01 microM) was 50.1% and the “Relative cell count (%) Mean” value ([3]; 1.00E-02 microM) was 62.2%. For the same compound, the “Relative cell count (%) Mean” value ([3]; 1.00E-03 microM) was 74.7%, the “Relative cell count (%) Mean” value ([3]; 1.01E-04 microM) was 102.9% and the “Relative cell count (%) Mean” value ([3]; 3.16E-01 microM) was 46.7%. For the same compound, the “Relative cell count (%) Mean” value ([3]; 3.17E-02 microM) was 52.5%, the “Relative cell count (%) Mean” value ([3]; 3.17E-03 microM) was 63.9% and the “Relative cell count (%) Mean” value ([3]; 3.18E-04 microM) was 83.4%. The “Relative cell count (%) Mean” value ([3]; 3.18E-05 microM) was 99.7%, the EC50 ([3]; Homo sapiens, DMS-114, read-out: Cell Count EC50) was 1.34 nM and the GI50 ([3]; Homo sapiens, DMS-114, read-out: Cell Count GI50) was 0.611 nM. The IC50 ([3]; Homo sapiens, DMS-114, read-out: Cell Count IC50) was 33.1 nM, the “Cell Count Activity Area” value [4] was 1.43 and the “Relative cell count (%) Mean” value ([4]; 1.00E+00 microM) was 71.4%. For the same compound, the “Relative cell count (%) Mean” value ([4]; 1.00E-01 microM) was 80.3%, the “Relative cell count (%) Mean” value ([4]; 1.00E-02 microM) was 85.0% and the “Relative cell count (%) Mean” value ([4]; 1.00E-03 microM) was 94.6%. The “Relative cell count (%) Mean” value ([4]; 1.01E-04 microM) was 103.1%, the “Relative cell count (%) Mean” value ([4]; 3.16E-01 microM) was 75.3% and the “Relative cell count (%) Mean” value ([4]; 3.17E-02 microM) was 81.8%. The “Relative cell count (%) Mean” value ([4]; 3.17E-03 microM) was 96.4%, the “Relative cell count (%) Mean” value ([4]; 3.18E-04 microM) was 102.0% and the “Relative cell count (%) Mean” value ([4]; 3.18E-05 microM) was 100.9%. For the same compound, the EC50 ([4]; Homo sapiens, A-431, Skin, Head/Neck, summary Table 5, read-out: EC50) was 12 nM, the EC50 ([4]; Homo sapiens, A-431, read-out: Cell Count EC50) was 12.1 nM and the GI50 ([4]; Homo sapiens, A-431, read-out: Cell Count GI50) was greater than 1000 nM. The IC50 ([4]; Homo sapiens, A-431, read-out: Cell Count IC50) was greater than 1000 nM, the EC50 ([5]; Homo sapiens, RKOE6, read-out: Cell Count EC50) was 1.13 nM and the GI50 ([5]; Homo sapiens, RKOE6, read-out: Cell Count GI50) was 5.57 nM. The IC50 ([5]; Homo sapiens, RKOE6, read-out: Cell Count IC50) was 14.2 nM, the “Cell Count Activity Area” value ([5]; RKOE6) was 3.66 and the “Relative cell count (%) Mean” value ([5]; RKOE6, 1.00E+00 microM) was 40.1%. For the same compound, the “Relative cell count (%) Mean” value ([5]; RKOE6, 1.00E-01 microM) was 43.1%, the “Relative cell count (%) Mean” value ([5]; RKOE6, 1.00E-02 microM) was 52.2% and the “Relative cell count (%) Mean” value ([5]; RKOE6, 1.00E-03 microM) was 64.1%. For the same compound, the “Relative cell count (%) Mean” value ([5]; RKOE6, 1.01E-04 microM) was 94.2%, the “Relative cell count (%) Mean” value ([5]; RKOE6, 3.16E-01 microM) was 43.1% and the “Relative cell count (%) Mean” value ([5]; RKOE6, 3.17E-02 microM) was 49.1%. The “Relative cell count (%) Mean” value ([5]; RKOE6, 3.17E-03 microM) was 65.3%, the “Relative cell count (%) Mean” value ([5]; RKOE6, 3.18E-04 microM) was 84.4% and the “Relative cell count (%) Mean” value ([5]; RKOE6, 3.18E-05 microM) was 98.6%. For the same compound, the “Cell Count Activity Area” value [6] was 3.79, the “Relative cell count (%) Mean” value ([6]; 1.00E+00 microM) was 52.5% and the “Relative cell count (%) Mean” value ([6]; 1.00E-01 microM) was 54.3%. For the same compound, the “Relative cell count (%) Mean” value ([6]; 1.00E-02 microM) was 62.0%, the “Relative cell count (%) Mean” value ([6]; 1.00E-03 microM) was 75.1% and the “Relative cell count (%) Mean” value ([6]; 1.01E-04 microM) was 96.5%. For the same compound, the “Relative cell count (%) Mean” value ([6]; 3.16E-01 microM) was 59.6%, the “Relative cell count (%) Mean” value ([6]; 3.17E-02 microM) was 56.2% and the “Relative cell count (%) Mean” value ([6]; 3.17E-03 microM) was 71.5%. The “Relative cell count (%) Mean” value ([6]; 3.18E-04 microM) was 82.7%, the “Relative cell count (%) Mean” value ([6]; 3.18E-05 microM) was 100.8% and the EC50 ([6]; Homo sapiens, read-out: Cell Count EC50) was 0.366 nM. It also gave a GI50 ([6]; Homo sapiens, read-out: Cell Count GI50) of 1.36 nM and an IC50 ([6]; Homo sapiens, read-out: Cell Count IC50) of 56.2 nM.
